Reference: US7087648B1, “Methods for modulating macrophage proliferation using polyamine analogs” (The Regents of the University of California, priority 1997, dated 2006)

Assays:
[1] = system: P388 leukemia; settings: mice bearing P388 leukemia; cited from earlier work
[2] = target: T1, spermine synthase (Homo sapiens, UniProt P52788); settings: competing with spermidine; cited from earlier work
T1 sequence (P52788 1-366): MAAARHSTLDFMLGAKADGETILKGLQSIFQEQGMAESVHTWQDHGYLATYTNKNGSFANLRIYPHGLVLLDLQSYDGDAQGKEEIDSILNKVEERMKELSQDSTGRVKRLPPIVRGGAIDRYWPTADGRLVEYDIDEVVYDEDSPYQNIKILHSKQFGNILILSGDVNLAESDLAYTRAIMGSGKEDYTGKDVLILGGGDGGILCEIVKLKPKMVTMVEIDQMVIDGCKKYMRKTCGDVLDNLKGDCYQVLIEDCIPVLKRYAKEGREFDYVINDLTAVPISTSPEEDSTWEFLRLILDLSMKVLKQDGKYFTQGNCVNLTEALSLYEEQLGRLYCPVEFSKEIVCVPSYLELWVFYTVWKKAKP

[3] = target: T2, S-adenosylmethionine decarboxylase (Homo sapiens, UniProt P17707); settings: competing with S-adenosylmethionine; cited from earlier work
T2 sequence (P17707 68-334 limits assumed): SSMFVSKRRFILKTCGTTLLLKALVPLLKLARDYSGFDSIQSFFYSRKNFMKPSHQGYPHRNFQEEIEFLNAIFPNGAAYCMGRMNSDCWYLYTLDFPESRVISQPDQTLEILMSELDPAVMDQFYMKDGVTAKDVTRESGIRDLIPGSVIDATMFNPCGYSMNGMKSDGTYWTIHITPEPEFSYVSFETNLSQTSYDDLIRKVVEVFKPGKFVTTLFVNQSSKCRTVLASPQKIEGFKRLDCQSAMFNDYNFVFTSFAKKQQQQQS
T2 sequence (P17707 1-67 limits assumed): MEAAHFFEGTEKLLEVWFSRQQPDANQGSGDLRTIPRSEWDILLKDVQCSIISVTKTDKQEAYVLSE

[4] = system: leukemic ascites cells; settings: cited from earlier work
[5] = system: spermine synthetase; settings: competing with putrescine; cited from earlier work
[6] = system: rat aortic smooth muscle cells; settings: in culture for 8 to 15 days; cited from earlier work
[7] = system: CD14^+/PCNA^+ peripheral blood macrophage; assay: In vitro CD14/PCNA staining (FACSCAN) of PBMC from AIDS dementia patients cultured five days with agent; type: cell-based, human; settings: for CD14^+/PCNA^+ / CD14^+/PCNA^− / total CD14: HIV dementia patient five; for CD14^+/PCNA^+: 0 drug: 74; for CD14^+/PCNA^−: 0 drug: 472; for total CD14: 0 drug: 546; for inhibition and/or killing of blood PCNA^+/CD14^+ cells: summary of the data shown; for effect on macrophage proliferation: blood of one patient with AIDS dementia, Table 2; for CD14^+, PCNA^+ / TOTAL CD14/PCNA: one patient with AIDS dementia; for CD14^+, PCNA^+: 0 drug: 64/5000; for TOTAL CD14/PCNA: 0 drug: 388
Protocol: We had previously separated peripheral blood monocytes on Ficoll. […] We then used Percoll gradient separation, which allows for denser cells to be captured. A two-step gradient was prepared in 15 mL conical tubes: bottom layer of 1.087 density Percoll, overlaid with 1.077 density. 1.5 mL whole heparinised blood was mixed with an equal volume of isotonic saline. This blood/saline was layered over the gradient and centrifuged. Cells from the 1.077 and 1.087 interfaces were collected, combined, and washed in 5 volumes of RPMI 1640. […] All further experiments were performed using 1.087 gradient.
Five×10^5 PBMC's isolated through a 1.087 g/cc Percoll/saline gradient were exposed to varied concentrations of agent after baseline CD14/PCNA staining was performed. The cells were cultured at 5×10^5 cells in RPM1-1640/10% fetal calf serum in a polypropylene tube (Falcon) at 37° C. for five days. After five days CD14/PCNA staining was performed on control and agent-treated cultures. FACSCAN analysis of PCNA-positive cells in control cultures was compared with agent-treated cultures and the percentage of control PCNA/CD14 cells was calculated. The results of such an experiment in which the effect of polyamine analog DEHOP (SunPharm; Florida) on proliferating macrophages (as detected by PCNA) from the blood of four patients with AIDS dementia are shown in FIG. 1A (with underlying data provided in Table 3). […] A comparison of the inhibitory effect of DEHOP and cyclosphosphamide, another anti-proliferative agent, was performed in vitro using the blood of one of these patients (“CB”).

[8] = system: spermidine-spermine N1-acetyltransferase (SSAT); settings: human melanoma cells; cited from earlier work
[9] = system: human brain tumor cell lines; settings: cited from earlier work
[10] = system: PCNA^+ macrophage; assay: Inhibition of PCNA^+ macrophage detection, peripheral blood of HIV^+ sarcoid patient; type: cell-based, human; settings: 60% of input CD14 cells PCNA^+, 96 hr after drug exposure and culture, FIG. 5
Protocol: Five×10^5 PBMC's isolated through a 1.087 g/cc Percoll/saline gradient were exposed to varied concentrations of agent after baseline CD14/PCNA staining was performed. […] FACSCAN analysis of PCNA-positive cells in control cultures was compared with agent-treated cultures and the percentage of control PCNA/CD14 cells was calculated.

[11] = system: PCNA/CD14 cells; assay: PCNA expression of peripheral macrophages (CD14 cells) from patients with AD, five days culture with agent; type: cell-based, human; settings: FIG. 3
Protocol: We had previously separated peripheral blood monocytes on Ficoll. […] We then used Percoll gradient separation, which allows for denser cells to be captured. A two-step gradient was prepared in 15 mL conical tubes: bottom layer of 1.087 density Percoll, overlaid with 1.077 density. 1.5 mL whole heparinised blood was mixed with an equal volume of isotonic saline. This blood/saline was layered over the gradient and centrifuged. Cells from the 1.077 and 1.087 interfaces were collected combined, and washed in 5 volumes of RPMI 1640.
Five×10^5 PBMC's isolated through a 1.087 g/cc Percoll/saline gradient were exposed to varied concentrations of agent after baseline CD14/PCNA staining was performed as described in Example 3. The cells were cultured at 5×1O^5 cells in RPM1-1640/10% fetal calf serum in a polypropylene tube (Falcon) at 37° C. for five days. After five days CDI 14/PCNA staining was performed on control and agent-treated cultures. FACSCAN analysis of PCNA-positive cells in control cultures was compared with agent-treated cultures and percentage of control PCNA/CD14 cells was calculated. Two polyamine analogs, DENOP (SunPharm; Florida) and SL-11037 were tested.

[12] = system: CD14^+/PCNA^+ peripheral blood macrophage; assay: In vitro CD14/PCNA staining (FACSCAN) of PBMC from AIDS dementia patients cultured five days with agent; type: cell-based, human; settings: one patient with AIDS dementia, 0 drug: 35/5000

CC(C=NNC(=N)NC1CCCC1)=NNC(=N)NC1CCCC1 [MGBCP, methylglyoxal-bis(cyclopentylamidinohydrazone)]
survival time [1]: prolonged survival time | inhibition of spermine synthase [2]: inhibited | inhibition of S-adenosylmethionine decarboxylase [3]: inhibited | spermidine and spermine in cells [4]: depleted | inhibition of spermine synthetase [5]: inhibited

CCNCCCNCCCNCCCNCC [Bis-ethyl norspermine, 1,11 -bis(ethyl)norspermine]
cell growth [6]: inhibit the growth

O=P1(N(CCCl)CCCl)NCCCO1 (stereo not drawn) [Cyclophosphamide, reference compound]
CD14^+/PCNA^+ ([7]; 5 μg/ml): 70 #cells/10,000 PBMC | CD14^+/PCNA^− ([7]; 5 μg/ml): 272 #cells/10,000 PBMC | total CD14 ([7]; 5 μg/ml): 342 #cells/10,000 PBMC | CD14^+/PCNA^+ ([7]; 0.005 (μg/ml)): 71 #cells/10,000 PBMC | CD14^+/PCNA^− ([7]; 0.005 (μg/ml)): 295 #cells/10,000 PBMC | total CD14 ([7]; 0.005 (μg/ml)): 366 #cells/10,000 PBMC | CD14^+/PCNA^+ ([7]; 0.05 (μg/ml)): 99 #cells/10,000 PBMC | CD14^+/PCNA^− ([7]; 0.05 (μg/ml)): 455 #cells/10,000 PBMC | total CD14 ([7]; 0.05 (μg/ml)): 554 #cells/10,000 PBMC | CD14^+/PCNA^+ ([7]; 0.5 (μg/ml)): 49 #cells/10,000 PBMC | CD14^+/PCNA^− ([7]; 0.5 (μg/ml)): 390 #cells/10,000 PBMC | total CD14 ([7]; 0.5 (μg/ml)): 439 #cells/10,000 PBMC | in vitro toxicity in this assay system ([7]; blood of patient five): lack of in vitro toxicity

CCNCCCNCCCNCCCNCC [DENSPM, 1,1 1-diethylnorspermine]
increase in immunodetectable SSAT protein [8]: 300 fold | increase of SSAT mRNA levels [8]: up to 20 fold

CCNCCCCNCCCCNCCCCNCCCCNCC [BE-4444, 1,19-bis(ethylamino)-5,10,15-triazanonadecane]
growth, survival, and cell cycle progression [9]: directly affects growth, survival, and cell cycle progression | killing of PCNA^+/CD14^+ cells ([7]; FIG. 1B): potent killing | inhibition and/or killing of blood PCNA^+/CD14^+ cells [7]: potent inhibition and/or killing

CCNCCCNC/C=C\CNCCCNCC.Cl.Cl.Cl.Cl [SL-11047, N,N′-bis(3-ethylaminopropyl)-cis-but-2-ene-1,4-diamine tetrahydrochloride]
PCNA^+/CD14 cell survival ([7]; FIG. 6, averages of several (N) experiments): decrease | inhibition and/or killing of blood PCNA^+/CD14^+ cells [7]: potent inhibition and/or killing | inhibition of PCNA^+ macrophage detection [10]: potent inhibitors

CCNCCCNCCCNCCCNCC [DENOP, diethyl-norspermine]
percentage of proliferating macrophages (PCNA/CD14 cells) [11]: significantly reduced the percentage of proliferating macrophages | CD14^+, CD69^+ ([12]; 2 μM): 32/ NO. OF CELLS/5,000 | CD14^+, CD69^+ ([12]; 10 μM): 23/ NO. OF CELLS/5,000 | CD14^+, CD69^+ ([12]; 50 μM): 32/ NO. OF CELLS/5,000 | effect on macrophage proliferation [7]: showed inhibitory effects | CD14^+, PCNA^+ ([7]; 2 μM): 34/ NO. OF CELLS/5,000 | TOTAL CD14/PCNA ([7]; 2 μM): 149 NO. OF CELLS/5,000 | CD14^+, PCNA^+ ([7]; 10 μM): 23/ NO. OF CELLS/5,000 | TOTAL CD14/PCNA ([7]; 10 μM): 50 NO. OF CELLS/5,000 | CD14^+, PCNA^+ ([7]; 50 μM): 19/ NO. OF CELLS/5,000 | TOTAL CD14/PCNA ([7]; 50 μM): 43 NO. OF CELLS/5,000 | inhibition and/or killing of blood PCNA^+/CD14^+ cells [7]: potent inhibition and/or killing

CCNCCCNC[C@@H]1C[C@@H]1CNCCCNCC.Cl.Cl.Cl.Cl [SL-11037, N-ethyl-N′-(2-(3′-ethylamino-propylaminomethyl)-cis-cyclopropylmethyl)-propane 1,3-diamine tetrahydrochloride]
percentage of proliferating macrophages (PCNA/CD14 cells) [11]: significantly reduced the percentage of proliferating macrophages | CD14^+, CD69^+ ([12]; 2 μM): 46/ NO. OF CELLS/5,000 | CD14^+, CD69^+ ([12]; 10 μM): 49/ NO. OF CELLS/5,000 | CD14^+, CD69^+ ([12]; 50 μM): 33/ NO. OF CELLS/5,000 | effect on macrophage proliferation [7]: showed inhibitory effects | CD14^+, PCNA^+ ([7]; 2 μM): 49/ NO. OF CELLS/5,000 | TOTAL CD14/PCNA ([7]; 2 μM): 276 NO. OF CELLS/5,000 | CD14^+, PCNA^+ ([7]; 10 μM): 32/ NO. OF CELLS/5,000 | TOTAL CD14/PCNA ([7]; 10 μM): 116 NO. OF CELLS/5,000 | CD14^+, PCNA^+ ([7]; 50 μM): 11/ NO. OF CELLS/5,000 | TOTAL CD14/PCNA ([7]; 50 μM): 79 NO. OF CELLS/5,000 | inhibition and/or killing of blood PCNA^+/CD14^+ cells [7]: potent inhibition and/or killing

NCCCNCCCCNCCCN [spermine]
increase in immunodetectable SSAT protein [8]: ~7 fold | increase of SSAT mRNA levels [8]: ~3 fold

CCNCCCNC[C@@H]1CC[C@H]1CNCCCNCC.Cl.Cl.Cl.Cl (relative stereo) [SL-11038, N-ethyl-N′-(2-(3′-ethylamino-propylaminomethyl)-trans-cyclobutylmethyl)-propane 1; 3-diamine tetrahydrochloride]
CD14^+, CD69^+ ([12]; 2 μM): 32/ NO. OF CELLS/5,000 | CD14^+, CD69^+ ([12]; 10 μM): 32/ NO. OF CELLS/5,000 | CD14^+, CD69^+ ([12]; 50 μM): 26/ NO. OF CELLS/5,000 | effect on macrophage proliferation [7]: showed inhibitory effects | CD14^+, PCNA^+ ([7]; 2 μM): 104/ NO. OF CELLS/5,000 | TOTAL CD14/PCNA ([7]; 2 μM): 356 NO. OF CELLS/5,000 | CD14^+, PCNA^+ ([7]; 10 μM): 36/ NO. OF CELLS/5,000 | TOTAL CD14/PCNA ([7]; 10 μM): 205 NO. OF CELLS/5,000 | CD14^+, PCNA^+ ([7]; 50 μM): 24/ NO. OF CELLS/5,000 | TOTAL CD14/PCNA ([7]; 50 μM): 104 NO. OF CELLS/5,000 | inhibition and/or killing of blood PCNA^+/CD14^+ cells [7]: potent inhibition and/or killing

CCNCCCNC[C@@H]1C[C@H]1CNCCCNCC.Cl.Cl.Cl.Cl (relative stereo) [SL-11044, N-ethyl-N′-(2-(3′-ethylamino-propylaminomethyl)-trans-cyclopropylmethyl)-propane 1,3-diamine tetrahydrochloride]
inhibition and/or killing of blood PCNA^+/CD14^+ cells [7]: potent inhibition and/or killing | inhibition of PCNA^+ macrophage detection [10]: potent inhibitors
